# According to publication PMC4368200, “Triclabendazole Sulfoxide Causes Stage-Dependent Embryolethality in Zebrafish and Mouse In Vitro” (PLoS ONE, 2015):
# “And” between values parts separate entries of the source, which are not always exact repeats. Equal entries are not always repeated. Where two headings read alike, the source gives them in different places. Marks after values point to notes of the source that are not given here.
# What was measured:
# [1] = system: rat embryos explanted at GD 9.5; experiment: Postimplantation whole embryo culture (postWEC); design: species or system Sprague Dawley rats; key to Yolk sac circulation (median): 1 = few/abnormal vessels, 2 = delayed, 3 = complete vascularization; key to Morphological score: sum of structure scores; higher = more advanced differentiation; settings: for Crown-rump length / Dysmorphogenic embryos / Morphological score / Somites number / Yolk sac circulation (median): 48 h; for postWEC LOAEC: GD 9.5-11.5, 48 h
# Method: Nulliparous female rats, which were checked to be in the oestrus phase of the oestrous cycle, were housed with adult males (1:1) for 4 h, considering 2 h of light and 2 h of darkness. Mating was confirmed by the presence of sperm in vaginal smear, and the following 24 h were considered as gestational day 0 (GD 0).
# Rat embryos were explanted and evaluated as described before with some variations. Briefly, embryos were explanted at GD 9.5 under sterile conditions. Two embryos were incorporated in flasks filled with 3.5 mL of culture medium which contained 20% of rat serum and 80% of serum mixture (Biochrom AG; Berlin, Germany). TCBZ, TCBZSO, ABZ and ABZSO were dissolved in dimethyl sulfoxide (DMSO; Sigma Aldrich Spain) and added to the culture medium to a final DMSO concentration of 0.1%. Culture flasks were oxygenated at the beginning of the culture with a gas mixture containing 12% O2 and after 38 h with a gas mixture containing 50% O2. Embryos were cultured at a temperature of 38°C, under rotation at a speed of 25 rpm (Noria R, Ovan Spain) for 48 h. After this period, embryos presenting yolk sac circulation and heartbeat were considered alive and were selected for further evaluation. The yolk sac circulation was evaluated according to the level of formation of blood vessels, giving a score of 1 in the cases in which few vessels were observed or the vascularization was abnormal, a score of 2 when a delay in vascularization was observed and 3 for complete vascularization, as previously described in [35]. Growth evaluation was assessed by crown-rump length and differentiation was evaluated by counting the number of somites and the morphological score. This score is the sum of the scores given to several embryonic structures depending on their differentiation stage, corresponding higher values with higher stages of differentiation. Furthermore, the percentage of dysmorphogenesis was calculated according to [36].
# For the postWEC experiments, the selected concentrations were 140 μM, 278 μM and 556 μM for TCBZ and 267 μM, 666 μM and 932 μM for TCBZSO. The tested concentrations for ABZ analysis were 0.4 μM, 1.1 μM and 1.9 μM and for ABZSO were 3.4 μM, 9 μM, 12 μM, 14 μM and 16 μM.
# zebrafish embryos [2] = experiment: Zebrafish embryo test (ZFET); assay type: in vivo, Danio rerio; settings: for Lethality / ZFET LOAEC dysmorphogenesis / ZFET LOAEC lethality: 2-50 hpf; for Dysmorphogenic embryos / Morphological score: 50 hpf
# Method: The day before the test, adult male and female zebrafish were transferred (1:1) to breeding tanks (Aquaneering, San Diego, California). Artificial plants and marbles were used as spawning substrate. Spawning and fertilization took place within 30 min after the onset of light in the morning. Eggs were collected and extensively cleaned with ISO-standard 7346 water diluted 1:5 using deionized water. Fertilized eggs were selected under a dissection stereomicroscope (Motic SMZ168, Motic China group, LTD., China). The eggs presenting overt anomalies like asymmetries, formation of vesicles or damaged membranes were discarded.
# Exposure and evaluation of eggs was performed as described before with slight variations. At 2 hours post-fertilization (hpf) fertilized eggs were selected and transferred to 6-well plates (Greiner Bio-one, Germany). Ten embryos were randomly distributed into wells and filled with 5 mL of freshly prepared test solutions. TCBZ, TCBZSO, ABZ and ABZSO were dissolved in DMSO and subsequently diluted in 0.3x Danieau’s buffer to a final DMSO concentration of 0.05% (v/v). Embryos were incubated at 26 ± 1°C with a dark-light cycle of 10–14 h for 48 h. Embryolethality was determined at 8 hpf on the basis of egg coagulation, at 26 hpf by the absence of tail detachment or somites formation, and at 50 hpf by the absence of heartbeat. Developmental and teratogenic effects were assessed at 50 hpf by the total morphological score described in [32].
# The working concentrations for ZFET experiments were 0.1 μM, 0.5 μM, 1 μM, 2.5 μM and 5 μM for TCBZ studies and 0.5 μM, 1 μM, 2.5 μM, 5 μM, 10 μM and 50 μM for TCBZSO. The experiments with ABZ were performed including concentrations of 0.025 μM, 0.05 μM, 0.1 μM, 0.3 μM and 0.5 μM and for ABZSO they included 1 μM, 6 μM, 12 μM, 25 μM and 50 μM.
# rat whole embryo culture = system: rat whole embryo culture; design: method as in PMID 22652462; settings: ref 16; cited from earlier work
# zebrafish embryos [3] = settings: cited from earlier work
# [4] = cited from earlier work
smiles,measurement,setting,value
"CCCSc1ccc2nc(NC(=O)OC)[nH]c2c1 [ABZ, methyl-5-(propylthio)-2-benzimidazole-carbamate]",Crown-rump length,[1]; 0.4 μM,3.5 ± 0.1 mm
same,Dysmorphogenic embryos,[1]; 0.4 μM,0%
same,Morphological score,[1]; 0.4 μM,38.9 ± 0.6
same,Somites number,[1]; 0.4 μM,25.8 ± 1.9
same,Yolk sac circulation (median),[1]; 0.4 μM,3.0
same,Frequency of dysmorphogenesis: Branchial bars,[1]; 1.1 µM,50%
same,Frequency of dysmorphogenesis: Heart,[1]; 1.1 µM,12.5%
same,Frequency of dysmorphogenesis: Subcutaneous blisters,[1]; 1.1 µM,50%
same,Frequency of dysmorphogenesis: Yolk sac,[1]; 1.1 µM,25%
same,Crown-rump length,[1]; 1.1 μM,3.2 ± 0.2 mm
same,Dysmorphogenic embryos,[1]; 1.1 μM,50 ^* %
same,Morphological score,[1]; 1.1 μM,30.8 ± 2.1
same,Somites number,[1]; 1.1 μM,23.9 ± 1.1
same,Yolk sac circulation (median),[1]; 1.1 μM,3.0
same,Frequency of dysmorphogenesis: Branchial bars,[1]; 1.9 µM,100%
same,Frequency of dysmorphogenesis: Caudal part,[1]; 1.9 µM,37.5%
same,Frequency of dysmorphogenesis: Flexion,[1]; 1.9 µM,12.5%
same,Frequency of dysmorphogenesis: Head,[1]; 1.9 µM,62.5%
same,Frequency of dysmorphogenesis: Heart,[1]; 1.9 µM,37.5%
same,Frequency of dysmorphogenesis: Subcutaneous blisters,[1]; 1.9 µM,37.5%
same,Frequency of dysmorphogenesis: Yolk sac,[1]; 1.9 µM,75%
same,Crown-rump length,[1]; 1.9 μM,2.9 ± 0.4 mm
same,Dysmorphogenic embryos,[1]; 1.9 μM,100 ^* %
same,Morphological score,[1]; 1.9 μM,26.4 ± 5.2
same,Somites number,[1]; 1.9 μM,21.9 ± 4.5
same,Yolk sac circulation (median),[1]; 1.9 μM,1.0 ^*
same,postWEC LOAEC,[1],1.1 µM
same,Lethality,zebrafish embryos [2]; 0.025 μM,7%
same,Dysmorphogenic embryos,zebrafish embryos [2]; 0.025 μM,0%
same,Morphological score,zebrafish embryos [2]; 0.025 μM,36.0 ± 0.0
same,Frequency of dysmorphogenesis: Cardiac oedema,zebrafish embryos [2]; 0.05 µM,3.3%
same,Lethality,zebrafish embryos [2]; 0.05 μM,0%
same,Dysmorphogenic embryos,zebrafish embryos [2]; 0.05 μM,3.3%
same,Morphological score,zebrafish embryos [2]; 0.05 μM,35.9 ± 0.2
same,Frequency of dysmorphogenesis: Cardiac oedema,zebrafish embryos [2]; 0.1 µM,2.5%
same,Lethality,zebrafish embryos [2]; 0.1 μM,0%
same,Dysmorphogenic embryos,zebrafish embryos [2]; 0.1 μM,2.5%
same,Morphological score,zebrafish embryos [2]; 0.1 μM,35.9 ± 0.2
same,Frequency of dysmorphogenesis: Cardiac oedema,zebrafish embryos [2]; 0.3 µM,72%
same,Frequency of dysmorphogenesis: Developmental delay,zebrafish embryos [2]; 0.3 µM,72%
same,Frequency of dysmorphogenesis: Eye pigmentation,zebrafish embryos [2]; 0.3 µM,16%
same,Frequency of dysmorphogenesis: Head-body pigmentation,zebrafish embryos [2]; 0.3 µM,40%
same,Frequency of dysmorphogenesis: Movement,zebrafish embryos [2]; 0.3 µM,32%
same,Lethality,zebrafish embryos [2]; 0.3 μM,17 ^* %
same,Dysmorphogenic embryos,zebrafish embryos [2]; 0.3 μM,72 ^* %
same,Morphological score,zebrafish embryos [2]; 0.3 μM,25.5 ± 2.1
same,Lethality,zebrafish embryos [2]; 0.5 μM,100% and 100 ^* %
same,ZFET LOAEC dysmorphogenesis,zebrafish embryos [2],0.3 µM
same,ZFET LOAEC lethality,zebrafish embryos [2],0.3 µM
same,"postWEC LOAEC, in vitro literature",rat whole embryo culture,3.7 [16] μM
same,"ZFET LOAEC, in vitro literature","zebrafish embryos [3]; ref 19, 20","0.3 [19, 20] μM"
same,Plasma concentrations at teratogenic doses,[4]; reviewed and transformed to μM by 13,0.94 ([47]; reviewed and transformed to μM by [13])
"CCC[S+]([O-])c1ccc2[nH]c(NC(=O)OC)nc2c1 (centres unmarked) [ABZSO, albendazole sulfoxide]",Crown-rump length,[1]; 3.4 μM,3.6 ± 0.2 mm
same,Morphological score,[1]; 3.4 μM,38.5 ± 2.1
same,Somites number,[1]; 3.4 μM,26.9 ± 1.6
same,Yolk sac circulation (median),[1]; 3.4 μM,3.0
same,Frequency of dysmorphogenesis: Branchial bars,[1]; 9 µM,23.1%
same,Frequency of dysmorphogenesis: Caudal part,[1]; 9 µM,7.7%
same,Frequency of dysmorphogenesis: Flexion,[1]; 9 µM,7.7%
same,Frequency of dysmorphogenesis: Heart,[1]; 9 µM,7.7%
same,Frequency of dysmorphogenesis: Subcutaneous blisters,[1]; 9 µM,30.8%
same,Frequency of dysmorphogenesis: Yolk sac,[1]; 9 µM,7.7%
same,Crown-rump length,[1]; 9 μM,3.4 ± 0.3 mm
same,Dysmorphogenic embryos,[1]; 9 μM,30.8 ^* %
same,Morphological score,[1]; 9 μM,35.8 ± 5.2
same,Somites number,[1]; 9 μM,25.0 ± 2.8
same,Yolk sac circulation (median),[1]; 9 μM,3.0
same,Frequency of dysmorphogenesis: Branchial bars,[1]; 12 µM,10%
same,Frequency of dysmorphogenesis: Head,[1]; 12 µM,40%
same,Frequency of dysmorphogenesis: Subcutaneous blisters,[1]; 12 µM,40%
same,Crown-rump length,[1]; 12 μM,3.6 ± 0.2 mm
same,Dysmorphogenic embryos,[1]; 12 μM,40 ^* %
same,Morphological score,[1]; 12 μM,38.6 ± 1.2
same,Somites number,[1]; 12 μM,25.5 ± 2.0
same,Yolk sac circulation (median),[1]; 12 μM,3.0
same,Frequency of dysmorphogenesis: Branchial bars,[1]; 14 µM,63.6%
same,Frequency of dysmorphogenesis: Caudal part,[1]; 14 µM,36.4%
same,Frequency of dysmorphogenesis: Flexion,[1]; 14 µM,9.1%
same,Frequency of dysmorphogenesis: Head,[1]; 14 µM,36.4%
same,Frequency of dysmorphogenesis: Optic vesicles,[1]; 14 µM,9.1%
same,Frequency of dysmorphogenesis: Otic vesicles,[1]; 14 µM,36.4%
same,Frequency of dysmorphogenesis: Subcutaneous blisters,[1]; 14 µM,54.5%
same,Frequency of dysmorphogenesis: Yolk sac,[1]; 14 µM,18.2%
same,Crown-rump length,[1]; 14 μM,3.4 ± 0.2 mm
same,Dysmorphogenic embryos,[1]; 14 μM,72.7 ^* %
same,Morphological score,[1]; 14 μM,29.7 ± 6.6
same,Somites number,[1]; 14 μM,22.9 ± 1.6
same,Yolk sac circulation (median),[1]; 14 μM,2.0 ^*
same,Frequency of dysmorphogenesis: Branchial bars,[1]; 16 µM,100%
same,Frequency of dysmorphogenesis: Caudal part,[1]; 16 µM,72.7%
same,Frequency of dysmorphogenesis: Flexion,[1]; 16 µM,63.6%
same,Frequency of dysmorphogenesis: Head,[1]; 16 µM,72.7%
same,Frequency of dysmorphogenesis: Heart,[1]; 16 µM,45.5%
same,Frequency of dysmorphogenesis: Limbs,[1]; 16 µM,18.2%
same,Frequency of dysmorphogenesis: Optic vesicles,[1]; 16 µM,27.3%
same,Frequency of dysmorphogenesis: Otic vesicles,[1]; 16 µM,45.5%
same,Frequency of dysmorphogenesis: Subcutaneous blisters,[1]; 16 µM,45.5%
same,Frequency of dysmorphogenesis: Yolk sac,[1]; 16 µM,63.6%
same,Crown-rump length,[1]; 16 μM,3.1 ± 0.6 mm
same,Dysmorphogenic embryos,[1]; 16 μM,100 ^* %
same,Morphological score,[1]; 16 μM,21.8 ± 6.7
same,Somites number,[1]; 16 μM,19.3 ± 2.4
same,Yolk sac circulation (median),[1]; 16 μM,1.0 ^*
same,postWEC LOAEC,[1],9 µM
same,Lethality,zebrafish embryos [2]; 1 μM,0%
same,Dysmorphogenic embryos,zebrafish embryos [2]; 1 μM,0%
same,Morphological score,zebrafish embryos [2]; 1 μM,36.0 ± 0.0
same,Frequency of dysmorphogenesis: Cardiac oedema,zebrafish embryos [2]; 6µM,3.3%
same,Lethality,zebrafish embryos [2]; 6 μM,0%
same,Dysmorphogenic embryos,zebrafish embryos [2]; 6 μM,3.3%
same,Morphological score,zebrafish embryos [2]; 6 μM,35.7 ± 0.9
same,Frequency of dysmorphogenesis: Cardiac oedema,zebrafish embryos [2]; 12 µM,10%
same,Lethality,zebrafish embryos [2]; 12 μM,0%
same,Dysmorphogenic embryos,zebrafish embryos [2]; 12 μM,10%
same,Morphological score,zebrafish embryos [2]; 12 μM,35.5 ± 0.6
same,Frequency of dysmorphogenesis: Brain necrosis,zebrafish embryos [2]; 25µM,100%
same,Frequency of dysmorphogenesis: Cardiac oedema,zebrafish embryos [2]; 25µM,100%
same,Frequency of dysmorphogenesis: Developmental delay,zebrafish embryos [2]; 25µM,100%
same,Frequency of dysmorphogenesis: Eye pigmentation,zebrafish embryos [2]; 25µM,100%
same,Frequency of dysmorphogenesis: Head-body pigmentation,zebrafish embryos [2]; 25µM,100%
same,Frequency of dysmorphogenesis: Movement,zebrafish embryos [2]; 25µM,100%
same,Lethality,zebrafish embryos [2]; 25 μM,13%
same,Dysmorphogenic embryos,zebrafish embryos [2]; 25 μM,100% and 100 ^* %
same,Morphological score,zebrafish embryos [2]; 25 μM,18.0 ± 0.0
same,Lethality,zebrafish embryos [2]; 50 μM,100% and 100 ^* %
same,ZFET LOAEC dysmorphogenesis,zebrafish embryos [2],25 µM
same,ZFET LOAEC lethality,zebrafish embryos [2],50 µM
same,"postWEC LOAEC, in vitro literature",rat whole embryo culture,17.7 [16] μM
same,"ZFET LOAEC, in vitro literature",zebrafish embryos [3]; ref 19,Non observed adverse effects
same,"ZFET LOAEC, in vitro literature",zebrafish embryos [3]; ref 20,6.8 µM
same,Plasma concentrations at teratogenic doses,[4]; reviewed and transformed to μM by 16,12.8 ([47]; reviewed and transformed to μM by [16])
